Among the data in BindingDB's records for doi:10.1093/toxsci/47.2.181 (University of Texas M. D. Anderson Cancer Center, 1999) are Ki values, retold here.

The assay addresses T1, Solute carrier family 22 member 2 (Rattus norvegicus, UniProt Q9R0W2).
T1 sequence (Q9R0W2 whole entry): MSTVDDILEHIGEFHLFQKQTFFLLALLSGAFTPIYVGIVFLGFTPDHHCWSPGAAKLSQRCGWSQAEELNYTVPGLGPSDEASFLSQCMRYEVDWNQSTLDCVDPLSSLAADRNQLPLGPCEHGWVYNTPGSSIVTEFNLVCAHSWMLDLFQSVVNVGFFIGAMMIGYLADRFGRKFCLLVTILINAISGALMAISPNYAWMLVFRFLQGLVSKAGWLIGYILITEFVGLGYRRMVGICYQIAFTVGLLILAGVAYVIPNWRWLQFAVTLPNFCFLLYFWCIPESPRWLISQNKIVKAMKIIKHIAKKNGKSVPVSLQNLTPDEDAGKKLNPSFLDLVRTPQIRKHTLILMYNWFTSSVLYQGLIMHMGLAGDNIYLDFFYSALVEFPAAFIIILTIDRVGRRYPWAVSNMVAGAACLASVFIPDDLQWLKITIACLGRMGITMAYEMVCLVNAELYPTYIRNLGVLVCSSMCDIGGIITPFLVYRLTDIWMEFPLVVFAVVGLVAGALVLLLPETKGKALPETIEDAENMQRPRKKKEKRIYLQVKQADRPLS
Description: TP_TRANSPORTER: inhibition of TEA uptake (apical to cell) in OCT2-expressing NIH3T3 cells.

Take `[NH2][Pt]([NH2])([Cl])[Cl]` [cis-Platinum diamminedichloride]: the affinity, expressed as Ki, was 925 µM.

By Ki is commonly meant the dissociation constant of the complex between target and ligand, obtained from inhibition or displacement.
